Patent US20110081428A1, “Use of thioflavin-like compounds to increase life span and/or health span” (priority 2009, published 2011)

What was measured:
Format in all cases: in vivo, Caenorhabditis elegans
[1] = test system: CL4176 (Aβ3-42 expressed in muscle); test: Worm paralysis assay, Aβ model; conditions: CL4176, 25° C.; 50 μM ThT, 100 μM curcumin
Description: (§1) Scoring for paralysis was initiated 2 and 8 days after temperature upshift for CL4176 and AM140, respectively. […] For sensitivity to EtOH or levamisole resistance, CW152 gas-1 (fc21) X and ZZ26 unc-63(x26)I worms were picked into 0.4 M EtOH or 50 μM levamisole, respectively, equilibrated for 5 min, and scored for paralysis as described above. Treated and untreated worms were compared with an unpaired t-test (implemented in Prism 4, Graphpad™ Software, Inc., San Diego, Calif., USA).

[2] = test system: HE250 [unc-52(e669su250)II]; test: Worm paralysis assay, unc-52 ts mutant; conditions: HE250, 25° C., 36 h; 50 μM ThT, 100 μM curcumin, 100 μM rifampicin
Description: as §1

[3] = test system: AM140 (rmIs132[P(unc-54) Q35::YFP]); test: Worm paralysis assay, polyQ model; conditions: AM140, 25° C., 8 days; 50 μM ThT, 100 μM curcumin
Description: as §1

HSP-16.2 = test: Western blot HSP-16.2; conditions: 50 μM ThT, 100 μM curcumin, 4 and 7 days of treatment
Description: Peptide corresponding to amino acids 110-145 ([…]; SEQ ID NO:1) of HSP-16.2 was used to commercially synthesize antiserum (Invitrogen). Briefly, KLH-peptide was emulsified by mixing with an equal volume of Freund's adjuvant and injected into three subcutaneous dorsal sites for a total of 0.1 mg of peptide for immunization. The animals (rabbits) were bled, the blood allowed to clot and the serum collected by centrifugation. Monoclonal HSP-70 and Polyclonal HSF-1 primary antibodies were from stressgen (N27F3-4 and SPA-901, respectively).
Worms were transferred to siliconized eppendorf tubes, washed once in S-basal and frozen in liquid N2. Standard SDS-PAGE was performed using (4-12%) NOVEX gels and IVIES running buffer. Following transfer PVDF (BioRad) membranes were incubated with antisera (1:10000) or primary antibodies (1:1000) diluted in blocking buffer and then with secondary, goat anti-rabbit IgG antibody/horseradish peroxidase conjugate (Pierce), diluted 1:25000. Detection was undertaken with chemiluminescent reagents (SuperSignal, Pierce) and standard autoradiography.

[4] = test system: DAF-16 fusion protein [TJ356 daf-16::daf-16-gfp]; test: DAF-16::GFP localization; conditions: ThT or curcumin treatment, no heat shock
Description: For fluorescent microscopy, TJ356 zIs356 IV [daf-16::daf-16-gfp+rol-6] or CF2189 Is001(skn-1::gfp+rol-6) were paralyzed with 1 mM levamisole mounted on 1% agarose pads and imaged using Olympus BX51 (60× objective) and HCImage software (Hamamatsu). For immunofluorescence, N2, […], CB1157 unc-54(e1157) or CL4176 dvIs27 [myo-3::Aβ(3 to 42)-let 3′UTR(pAF29); pRF4 (rol-6(su1006))] worms were treated for 24-36 h with or without 50 μM ThT at 25° C. After this period the worms were collected, rinsed, and fixed in 4% paraformaldehyde overnight. […] Paramyosin and perlecans were detected with primary monoclonal antibodies 5-23 and MH3 (developed by Henry Epstein and Robert H. Waterston and obtained from the Developmental Studies Hybridoma Bank developed under the auspices of the NICHD and maintained by The University of Iowa, Department of Biology, Iowa City, Iowa 52242) and AlexaFluor 633 goat anti-mouse (Molecular Probes) as secondary antibody. Soluble oligomers and Aβ peptide were detected with anti polyclonal All (Invitrogen) and 6E10 monoclonal (Covance) primary antibodies, respectively, with AlexaFluor 568 goat anti-rabbit and AlexaFluor 488 goat anti-mouse (Molecular Probes) as secondary antibodies. Images were processed and quantified by using Image Analyst MK II (Novato, Calif.).

Q: `COc1cc(/C=C/C(=O)CC(=O)/C=C/c2ccc(O)c(OC)c2)ccc1O` [curcumin, reference compound] was tested. Which “proportion of paralyzed worms” value [1] did it give?
A: The value was “significantly decrease the proportion of paralyzed worms”.

Q: And the “paralysis phenotype of unc-52 mutant” value [2]?
A: The value was “Protection”.

Q: And the “proportion of paralyzed worms” value [3]?
A: Its value is “significantly decrease the proportion of paralyzed worms”.

Q: And the HSP-16.2 protein levels (HSP-16.2)?
A: The HSP-16.2 protein levels was “increase the HSP-16.2 levels”.

Q: What about the “DAF-16::GFP localization” value [4] of the same compound?
A: The value was “does not produce DAF-16::GFP relocalization”.
